Experiment [1] concerns Ssa-PreQ1 RNA (RNA, riboswitch) AGAGGUUCCUAGCUGAUACCCUCUAUAAAAAACUA
In words: photocrosslinking, PAGE gel shift. The note with it: PreQ1 folding buffer: 100 mM KCl, 1 mM MgCl2, covalent, 50 µM RNA, 75 µM compound, 365 nm 35 min.

Experiment [2] shares this test system. In words: photocrosslinking, streptavidin pull-down, PAGE. The settings on record: PreQ1 folding buffer: 100 mM KCl, 1 mM MgCl2; covalent; 50 µM RNA, 75 µM bio-CNV, 35 min; also pulled down from MCF7 total RNA.
The test system of experiment [3] is Tte PreQ1 RNA (unlabeled) (RNA, riboswitch) CUGGGUCGCAGUAACCCCAGUUAACAAAACAAG
In words: photocrosslinking, denaturing PAGE and fluorescence. The settings on record: PreQ1 folding buffer: 100 mM KCl, 1 mM MgCl2; covalent; 50 µM RNA, 75 µM CNV, 365 nm; 15% crosslinked at 35 min.

In experiment [4] the test system is Gth PreQ1 aptamer (RNA, riboswitch) AGAGGUUUCUAGCAAAACCCUCUAUAAAAAACUA
Kind of experiment: photocrosslinking, PAGE gel shift and MALDI-TOF. The settings on record: PreQ1 folding buffer: 100 mM KCl, 1 mM MgCl2; covalent; 50 µM RNA, 75 µM CNV, 365 nm 35 min, RT.

The subject of experiment [5] is Cy5-labelled Tte PreQ1 RNA (RNA, riboswitch) CUGGGUCGCAGUAACCCCAGUUAACAAAACAAG
Kind of experiment: microscale thermophoresis. The settings on record: 100 mM KCl, 1 mM MgCl2; 50 mM Tris pH 7.5, 5% DMSO, RT; irradiated 365 nm 35 min before MST, covalent, apparent.

Experiment [6] concerns Oih PreQ1 aptamer (RNA, riboswitch) AGAGGUUCUUAGCUUCAACCCUCUAUAAAAAACUAA
In words: photocrosslinking, PAGE gel shift and MALDI-TOF. The note with it: PreQ1 folding buffer: 100 mM KCl, 1 mM MgCl2; covalent; 50 µM RNA, 75 µM CNV, 365 nm 35 min, RT.

The subject of experiment [7] is Bsu PreQ1 aptamer (RNA, riboswitch) AGAGGUUCUAGCUACACCCUCUAUAAAAAACUAA
Kind of experiment: photocrosslinking, PAGE gel shift and MALDI-TOF. The settings on record: PreQ1 folding buffer: 100 mM KCl, 1 mM MgCl2; covalent; 50 µM RNA, 75 µM CNV, 365 nm 35 min, RT.

Experiment [8] has as its system Bpu PreQ1 aptamer (RNA, riboswitch) AGAGGUUCUAGCAAAACCCUCUAUAAAAAACUAA
Kind of experiment: photocrosslinking, PAGE gel shift and MALDI-TOF. The settings on record: PreQ1 folding buffer: 100 mM KCl, 1 mM MgCl2; covalent; 50 µM RNA, 75 µM CNV, 365 nm 35 min, RT.

Experiment [9] relates to Tte PreQ1 RNA (unlabeled) (RNA, riboswitch) CUGGGUCGCAGUAACCCCAGUUAACAAAACAAG
Kind of experiment: competition with CNV photocrosslinking, PAGE. The settings on record: PreQ1 folding buffer: 100 mM KCl, 1 mM MgCl2; PreQ1 0X-10X; dose-dependent inhibition of CNV crosslinking.

The subject of experiment [10] is Ssa-PreQ1 RNA (RNA, riboswitch) AGAGGUUCCUAGCUGAUACCCUCUAUAAAAAACUA
In words: competition with bio-CNV photocrosslinking, pull-down, RNAseq. The settings on record: PreQ1 folding buffer: 100 mM KCl, 1 mM MgCl2; 1 µM aptamer in MCF7 total RNA, 250 µM bio-CNV, 500 µM PreQ1; enrichment abolished.

For the compound `N#C/C=C/c1ccc2[nH]c3cccnc3c2c1`, in experiment [1] (minimal uncaging at 302 nm), the binding entry is recorded as “yes”.
For the compound `N#C/C=C/c1ccc2[nH]c3ccc(CCCOC(=O)CCCc4cn(CCOCCOCCOCCNC(=O)CCCC[C@@H]5SC[C@@H]6NC(=O)N[C@@H]65)nn4)cc3c2c1`, in [2], the binding entry is listed as “yes”.
`N#C/C=C/c1ccc2[nH]c3ccncc3c2c1`: the binding entry in [1] (minimal uncaging at 302 nm) is “yes”.
As for `N#C/C=C/c1ccc2[nH]c3ccccc3c2c1`, the binding result in experiment [3], in experiment [4], in [1] (reversed at 302 nm), in experiment [6], in [7] and in experiment [8] was “yes” in each case. In experiment [5], the KD was 400 ± 200 nM.
Take `NCc1c[nH]c2nc(N)[nH]c(=O)c12`: the binding result in experiment [9] and in experiment [10] was “yes” throughout.

These data come from PMC12105704 (2025).
